# In patent publication US20250228882A1, “ORALLY-BIOAVAILABLE NUCLEOSIDE ANALOGS” (Venatorx Pharmaceuticals, Inc., priority 2022, published 2025):
# Read-outs that look alike come from different tables or passages of the source.
# Legend:
# [1] = Bidirectional Caco-2 permeability assay; format: in vitro ADME; settings: human, Caco-2
# Method in brief: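 Caco-2 monolayers (passage 39, 19-day culture, TEER >600 Ohms/cm^2) dosed A→B and B→A in duplicate, 90 min at 37 °C without shaking. Donor and receiver samples at 10 and 90 min quantified by LC/MS/MS. Papp (cm/s), efflux ratio and recovery calculated; ER >2 flags potential efflux substrate.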
# [2] = Stability in human fasted-state simulated gastric fluid and fasted-state simulated intestinal fluid; format: physicochemical; settings: timepoints 0-120 min
# Procedure: The chemical stability of example compounds was determined using human fasted-state simulated gastric fluid, and fasted-state simulated intestinal fluid, prepared as follows.
# • Weigh 1.0 g NaCl and dissolved it in 0.49 L water • Adjust pH value to 1.2, and adjust volume to 0.5 L in water • Filter the NaCl/HCl buffer through a 0.22 μm filter • Weigh 3.0 mg FaSSGF powder (Vendor: Biorelevant, catalog #FFF01), dissolve it in 50 mL NaCl/HCl buffer • Dissolve the FaSSGF powder in NaCl/HCl buffer and make up the volume to 50 mL • Store at 4° C. for future use.
# • Weigh 0.695 g NaOH, 1.115 g maleic acid and 2.005 g NaCl, and dissolve in 0.49 L water • Adjusted the pH value to 6.8 and adjust volume to 0.5 L with water • Filter the maleic acid buffer through a 0.22 μm filter • Weigh 89.5 mg FaSSIF-V2 powder (Vendor: Biorelevant catalog #V2FAS01), dissolve in 50 mL maleic buffer • Dissolve the FaSSIF-V2 powder in maleic buffer and make up the volume to 50 mL • Store at 4° C. for future use.
# Briefly, test compounds were prepared as 50 μM working solutions in DMSO, and 2 μL test compound working solution was added to 98 μL of each buffer respectively in six tubes (for six timepoints, 0, 5, 15, 30, 60, and 120 min) and gently mixed. At each corresponding timepoint, the reaction was stopped by addition of 300 μL of quenching solution (methanol solution of 5 ng/mL terfenadine and 10 ng/mL of tolbutamide). Each tube was vortexed for 1 min, centrifuged at 4,000 rpm at 4° C. for 15 min, then 200 μL of supernatant was removed. The half-life of each example compound was determined using LC-MS/MS analysis, using the internal standards present in the quenching solution.
# [3] = fasted-state simulated gastric fluid (FaSSGF), human fasted-state simulated gastric fluid, pH 1.2, LC-MS/MS, read-out: FaSSGF t1/2
# [4] = human fasted-state simulated intestinal fluid (FaSSIF-V2), pH 6.8, LC-MS/MS, read-out: FaSSIF t1/2
SMILES,Papp A→B at 90 min [1] [×10⁻⁶ cm/s],Papp B→A at 90 min [1] [×10⁻⁶ cm/s],efflux ratio at 90 min [1],"half-life at 1 µM [2, 3] [min]","half-life at 1 µM [2, 4] [min]"
"CCCC(=O)Nc1ncnn2c([C@]3(C#N)O[C@H](COC(=O)CC4CCCCC4)[C@@H](OC(=O)[C@@H](N)C(C)(C)C)[C@H]3O)ccc12 [Compound 1, (2R,3S,4R,5R)-5-(4-butyramidopyrrolo[2,1-f][1,2,4]triazin-7-yl)-5-cyano-2-((2-cyclohexylacetoxy)methyl)-4-hydroxytetrahydrofuran-3-yl (S)-2-amino-3,3-dimethylbutanoate]",6.8,8.72,1.28,96.9,> 373
"CCC(CC)C(=O)Nc1ncnn2c([C@]3(C#N)O[C@H](COC(=O)CC4CCCCC4)[C@@H](OC(=O)[C@@H](N)C(C)(C)C)[C@H]3O)ccc12 [Compound 2, (2R,3S,4R,5R)-5-cyano-2-((2-cyclohexylacetoxy)methyl)-5-(4-(2-ethylbutanamido)pyrrolo[2,1-f][1,2,4]triazin-7-yl)-4-hydroxytetrahydrofuran-3-yl (S)-2-amino-3,3-dimethylbutanoate]",4.08,6.13,1.5,> 373,> 373
"COC(C)(C)C(=O)Nc1ncnn2c([C@]3(C#N)O[C@H](COC(=O)CC4CCCCC4)[C@@H](OC(=O)[C@@H](N)C(C)(C)C)[C@H]3O)ccc12 [Compound 3, (2R,3S,4R,5R)-5-cyano-2-((2-cyclohexylacetoxy)methyl)-4-hydroxy-5-(4-(2-methoxy-2-methylpropanamido)pyrrolo[2,1-f][1,2,4]triazin-7-yl)tetrahydrofuran-3-yl (S)-2-amino-3,3-dimethylbutanoate]",8.49,9.3,1.1,20.8,> 373
"CC(C)(C)[C@@H](N)C(=O)OC[C@H]1O[C@@](C#N)(c2ccc3c(N)ncnn23)[C@H](O)[C@@H]1OC(=O)CC1CCCCC1 [Compound 37, ((2R,3S,4R,5R)-5-(4-aminopyrrolo[2,1-f][1,2,4]triazin-7-yl)-5-cyano-3-(2-cyclohexylacetoxy)-4-hydroxytetrahydrofuran-2-yl)methyl (R)-2-amino-3,3-dimethylbutanoate]",–,–,2.95,> 373,> 373
"CCCCOC(C)(C)C(=O)Nc1ncnn2c([C@]3(C#N)O[C@H](COC(=O)CC4CCCCC4)[C@@H](OC(=O)[C@@H](N)C(C)(C)C)[C@H]3O)ccc12 [Compound 74, (2R,3S,4R,5R)-5-(4-(2-butoxy-2-methylpropanamido)pyrrolo[2,1-f][1,2,4]triazin-7-yl)-5-cyano-2-((2-cyclohexylacetoxy)methyl)-4-hydroxytetrahydrofuran-3-yl (S)-2-amino-3,3-dimethylbutanoate]",0.41,0.41,1,–,–
"CCCCOC(C)(C)C(=O)Nc1ncnn2c([C@]3(C#N)O[C@H](COC(=O)CC4CCCCCC4)[C@@H](OC(=O)[C@H](N)C(C)(C)C)[C@H]3O)ccc12 [Compound 75, (2R,3S,4R,5R)-5-(4-(2-butoxy-2-methylpropanamido)pyrrolo[2,1-f][1,2,4]triazin-7-yl)-5-cyano-2-((2-cycloheptylacetoxy)methyl)-4-hydroxytetrahydrofuran-3-yl(R)-2-amino-3,3-dimethylbutanoate]",0.22,0.12,0.52,–,–
"CCC(CC)C(=O)Nc1ncnn2c([C@]3(C#N)O[C@H](COC(=O)CC4CCCC4)[C@@H](OC(=O)[C@H](N)C(C)(C)C)[C@H]3O)ccc12 [Compound 76, (2R,3S,4R,5R)-5-cyano-2-((2-cyclopentylacetoxy)methyl)-5-(4-(2-ethylbutanamido)pyrrolo[2,1-f][1,2,4]triazin-7-yl)-4-hydroxytetrahydrofuran-3-yl (R)-2-amino-3,3-dimethylbutanoate]",2.5,2.4,1,–,–
"CCC(CC)C(=O)Nc1ncnn2c([C@]3(C#N)O[C@H](COC(=O)CC4CCCCCC4)[C@@H](OC(=O)[C@H](N)C(C)(C)C)[C@H]3O)ccc12 [Compound 77, (2R,3S,4R,5R)-5-cyano-2-((2-cycloheptylacetoxy)methyl)-5-(4-(2-ethylbutanamido)pyrrolo[2,1-f][1,2,4]triazin-7-yl)-4-hydroxytetrahydrofuran-3-yl (R)-2-amino-3,3-dimethylbutanoate]",1,1.6,1.7,–,–
